Read-outs that look alike come from different tables or passages of the source.
Legend:
[1] = rat; for F: F = (AUCIN × DoseIV)/(AUCIV × DoseIN); for concentration at 0 minutes / concentration at 0.5 minutes / concentration at 5 minutes / concentration at 15 minutes / concentration at 30 minutes / concentration at 60 minutes / concentration at 120 minutes / concentration at 160 minutes / concentration at 240 minutes / concentration at 300 minutes / concentration at 360 minutes / concentration at 420 minutes / concentration at 480 minutes: Mean plasma concentration of THC
[2] = intranasally at 1.14-1.33 mg/kg, rat model, period from 15 to 120 minutes after administration; cited from earlier work
[3] = male, Sprague-Dawley, plasma, inhaled or intranasal, 9.84 mg/kg
[4] = male, Sprague-Dawley, plasma, inhaled or intranasal, 9.91 mg/kg
[5] = male, Sprague-Dawley, plasma, iv, 0.99 mg/kg
[6] = male, Sprague-Dawley, plasma, iv, 1 mg/kg, Intravenous (1 mg/kg), propylene glycol, n = 3, rat
[7] = male, Sprague-Dawley, plasma, other: intranasal, 10 mg/kg, Intranasal (10 mg/kg), 90:10 propylene glycol/ethanol, n = 5, rat
[8] = male, Sprague-Dawley, plasma, other: intranasal, 10 mg/kg, Intranasal (10 mg/kg), propylene glycol, n = 3, rat

CCCCCc1cc(O)c2c(c1)OC(C)(C)[C@@H]1CCC(C)=C[C@@H]21 [THC, delta-9-tetrahydrocannabinol]
F ([1]; Intranasal (IN), 90:10 propylene glycol/ethanol, 9.91 mg/kg): 0.138
F ([1]; Intranasal (IN), propylene glycol, 9.84 mg/kg): 0.136
F ([1]; Intravenous (IV), propylene glycol, 0.99 mg/kg): 1
AUC [1, 3]: 428 ng·h/mL
Cmax [1, 3]: 55 ng/mL
Tmax [1, 3]: 3 h
AUC [1, 4]: 434 ng·h/mL
Cmax [1, 4]: 75 ng/mL
Tmax [1, 4]: 2 h
AUC [1, 5]: 314 ng·h/mL
Cmax [1, 5]: 693 ng/mL
Tmax [1, 5]: 0.0083 h
concentration at 0 minutes [1, 6]: 0 ng/mL
concentration at 0.5 minutes [1, 6]: 693 ng/mL
concentration at 5 minutes [1, 6]: 136 ng/mL
concentration at 15 minutes [1, 6]: 73 ng/mL
concentration at 30 minutes [1, 6]: 48 ng/mL
concentration at 60 minutes [1, 6]: 34 ng/mL
concentration at 120 minutes [1, 6]: 24 ng/mL
concentration at 160 minutes [1, 6]: 23 ng/mL
concentration at 240 minutes [1, 6]: 21 ng/mL
concentration at 300 minutes [1, 6]: 18 ng/mL
concentration at 360 minutes [1, 6]: 22 ng/mL
concentration at 420 minutes [1, 6]: 25 ng/mL
concentration at 480 minutes [1, 6]: 12 ng/mL
bioavailability ([1]; male, Sprague-Dawley, plasma, other: intranasal, 10 mg/kg): ~14%
concentration at 0 minutes [1, 7]: 0 ng/mL
concentration at 0.5 minutes [1, 7]: 0 ng/mL
concentration at 5 minutes [1, 7]: 0 ng/mL
concentration at 15 minutes [1, 7]: 24 ng/mL
concentration at 30 minutes [1, 7]: 43 ng/mL
concentration at 60 minutes [1, 7]: 59 ng/mL
concentration at 120 minutes [1, 7]: 75 ng/mL
concentration at 160 minutes [1, 7]: 54 ng/mL
concentration at 240 minutes [1, 7]: 24 ng/mL
concentration at 300 minutes [1, 7]: 20 ng/mL
concentration at 360 minutes [1, 7]: 19 ng/mL
concentration at 420 minutes [1, 7]: 16 ng/mL
concentration at 480 minutes [1, 7]: 11 ng/mL
concentration at 0 minutes [1, 8]: 0 ng/mL
concentration at 0.5 minutes [1, 8]: 0 ng/mL
concentration at 5 minutes [1, 8]: 0 ng/mL
concentration at 15 minutes [1, 8]: 3 ng/mL
concentration at 30 minutes [1, 8]: 13 ng/mL
concentration at 60 minutes [1, 8]: 26 ng/mL
concentration at 120 minutes [1, 8]: 38 ng/mL
concentration at 160 minutes [1, 8]: 36 ng/mL
concentration at 240 minutes [1, 8]: 51 ng/mL
concentration at 300 minutes [1, 8]: 19 ng/mL
concentration at 360 minutes [1, 8]: 17 ng/mL
concentration at 420 minutes [1, 8]: 16 ng/mL
concentration at 480 minutes [1, 8]: 16 ng/mL
analgesic response [2]: an analgesic response was observed

— patent US20070060639A1, “Compositions and methods for intranasal delivery of tricyclic cannabinoids” (University of Kentucky, priority 2005, published 2007)
